Results from ChEMBL document CHEMBL5696443 (Clin Cancer Res, 2016).
Activity calls are given as the source filed them. The calls are words filed in the database; no cut-off is given here.

Key:
[1] = Average plasma concentration in human at 180 mg administered once a day; assay type: ADME; details: in vivo
[2] = molecular target: Tyrosine-protein kinase Fyn (Homo sapiens, UniProt P06241); test: Inhibition of human FYN using poly (Glu, Tyr)4:1 as substrate in presence of [gamma33P]-ATP by HotSpot assay
Sequence of Tyrosine-protein kinase Fyn (P06241 whole entry): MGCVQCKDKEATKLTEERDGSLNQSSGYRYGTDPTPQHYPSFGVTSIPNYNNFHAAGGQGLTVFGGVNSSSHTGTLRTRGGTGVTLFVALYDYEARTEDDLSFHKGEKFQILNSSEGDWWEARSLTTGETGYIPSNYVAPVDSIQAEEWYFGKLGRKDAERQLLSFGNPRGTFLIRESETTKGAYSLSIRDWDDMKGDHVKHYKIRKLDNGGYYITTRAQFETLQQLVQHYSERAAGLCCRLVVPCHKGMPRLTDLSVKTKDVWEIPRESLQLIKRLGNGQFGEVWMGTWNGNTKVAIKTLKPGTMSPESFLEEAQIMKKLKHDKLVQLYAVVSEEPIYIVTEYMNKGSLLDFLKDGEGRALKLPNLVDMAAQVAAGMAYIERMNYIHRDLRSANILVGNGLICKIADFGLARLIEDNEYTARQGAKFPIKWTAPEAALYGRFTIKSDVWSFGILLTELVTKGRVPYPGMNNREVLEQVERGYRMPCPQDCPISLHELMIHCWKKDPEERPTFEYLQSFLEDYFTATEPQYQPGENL

[3] = molecular target: Dual specificity tyrosine-phosphorylation-regulated kinase 4 (Homo sapiens) (UniProt Q9NR20); test: Inhibition of human DYRK4 at 1 uM using RRRFRPASPLRGPPK as substrate in presence of [gamma33P]-ATP by HotSpot assay relative to control
Insulin receptor = Insulin receptor (Homo sapiens, UniProt P06213)
Sequence of Insulin receptor (P06213 28-758 limits assumed): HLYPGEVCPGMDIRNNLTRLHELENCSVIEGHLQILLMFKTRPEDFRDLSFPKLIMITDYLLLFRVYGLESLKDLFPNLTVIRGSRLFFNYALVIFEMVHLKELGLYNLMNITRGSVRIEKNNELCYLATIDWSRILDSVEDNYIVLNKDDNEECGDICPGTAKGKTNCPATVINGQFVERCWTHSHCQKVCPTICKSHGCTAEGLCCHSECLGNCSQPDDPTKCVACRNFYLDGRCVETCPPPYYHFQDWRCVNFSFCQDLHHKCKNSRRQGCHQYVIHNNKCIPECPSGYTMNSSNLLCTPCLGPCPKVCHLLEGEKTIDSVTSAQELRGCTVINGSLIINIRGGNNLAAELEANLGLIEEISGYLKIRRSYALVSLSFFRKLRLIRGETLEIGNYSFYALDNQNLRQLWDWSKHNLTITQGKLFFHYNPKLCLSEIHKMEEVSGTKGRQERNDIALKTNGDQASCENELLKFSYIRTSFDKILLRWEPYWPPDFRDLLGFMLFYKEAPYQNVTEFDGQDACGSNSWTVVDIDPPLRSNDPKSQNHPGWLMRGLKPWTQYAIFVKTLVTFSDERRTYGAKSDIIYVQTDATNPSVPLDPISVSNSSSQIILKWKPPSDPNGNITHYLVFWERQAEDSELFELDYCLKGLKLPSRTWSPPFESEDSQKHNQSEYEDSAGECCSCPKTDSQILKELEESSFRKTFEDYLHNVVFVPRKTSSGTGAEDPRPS
Sequence of Insulin receptor (P06213 763-1382 limits assumed): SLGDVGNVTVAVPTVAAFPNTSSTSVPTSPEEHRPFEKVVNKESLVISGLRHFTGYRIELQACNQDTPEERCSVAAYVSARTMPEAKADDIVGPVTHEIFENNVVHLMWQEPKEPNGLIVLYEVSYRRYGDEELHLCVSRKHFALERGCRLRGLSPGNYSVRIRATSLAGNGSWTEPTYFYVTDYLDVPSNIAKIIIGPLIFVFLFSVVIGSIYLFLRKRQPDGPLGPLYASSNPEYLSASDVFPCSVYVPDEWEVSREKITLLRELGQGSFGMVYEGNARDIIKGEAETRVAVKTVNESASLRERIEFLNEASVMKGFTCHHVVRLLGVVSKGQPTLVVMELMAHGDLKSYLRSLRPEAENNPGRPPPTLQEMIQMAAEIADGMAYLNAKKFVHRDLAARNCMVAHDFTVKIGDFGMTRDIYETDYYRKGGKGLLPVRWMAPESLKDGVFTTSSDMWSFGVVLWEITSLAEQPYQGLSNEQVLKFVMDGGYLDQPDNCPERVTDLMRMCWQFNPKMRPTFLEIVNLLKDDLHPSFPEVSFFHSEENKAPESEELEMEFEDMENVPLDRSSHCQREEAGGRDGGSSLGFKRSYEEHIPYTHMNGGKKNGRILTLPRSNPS
Description: Inhibition of INSR phosphorylation in insulin-stimulated human H4-II-E cells preincubated with compound for 30 mins followed by insulin stimulation and measured after 10 mins by immunoblot analysis

[4] = molecular target: Ribosomal protein S6 kinase alpha-4 (Homo sapiens) (UniProt O75676); test: Inhibition of human RPS6KA4 at 1 uM using GRPRTSSFAEG as substrate in presence of [gamma33P]-ATP by HotSpot assay relative to control
in vitro = details: mouse, BaF3 cells
[5] = molecular target: Tyrosine-protein kinase Lyn (Homo sapiens, UniProt P07948); test: Inhibition of human LYNB at 1 uM using poly (Glu, Tyr)4:1 as substrate in presence of [gamma33P]-ATP by HotSpot assay relative to control
Sequence of Tyrosine-protein kinase Lyn (P07948 2-512 limits assumed): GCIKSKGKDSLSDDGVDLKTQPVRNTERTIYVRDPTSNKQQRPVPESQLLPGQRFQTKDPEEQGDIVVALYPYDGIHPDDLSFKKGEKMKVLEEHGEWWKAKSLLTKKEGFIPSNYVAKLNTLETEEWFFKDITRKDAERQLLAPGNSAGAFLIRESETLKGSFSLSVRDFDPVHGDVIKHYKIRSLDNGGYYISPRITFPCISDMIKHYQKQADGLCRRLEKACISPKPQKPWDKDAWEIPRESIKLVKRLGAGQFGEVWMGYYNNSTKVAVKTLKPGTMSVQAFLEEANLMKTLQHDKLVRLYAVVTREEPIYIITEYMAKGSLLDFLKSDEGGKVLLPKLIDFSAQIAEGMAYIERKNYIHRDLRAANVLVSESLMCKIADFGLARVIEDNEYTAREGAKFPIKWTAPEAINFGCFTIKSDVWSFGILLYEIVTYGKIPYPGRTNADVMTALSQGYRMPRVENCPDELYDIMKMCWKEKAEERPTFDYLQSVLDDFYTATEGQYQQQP

Focal adhesion kinase 1 = Focal adhesion kinase 1 (Homo sapiens, UniProt Q05397); test: Inhibition of human FAK using poly (Glu, Tyr)4:1 as substrate in presence of [gamma33P]-ATP by HotSpot assay
[6] = molecular target: Wee1-like protein kinase (Homo sapiens) (UniProt P30291); test: Inhibition of human WEE1 at 1 uM using CDK1 (D146N)/cyclin B1 as substrate in presence of [gamma33P]-ATP by HotSpot assay relative to control
Sequence of Wee1-like protein kinase (Homo sapiens) (P30291 whole entry, looked up): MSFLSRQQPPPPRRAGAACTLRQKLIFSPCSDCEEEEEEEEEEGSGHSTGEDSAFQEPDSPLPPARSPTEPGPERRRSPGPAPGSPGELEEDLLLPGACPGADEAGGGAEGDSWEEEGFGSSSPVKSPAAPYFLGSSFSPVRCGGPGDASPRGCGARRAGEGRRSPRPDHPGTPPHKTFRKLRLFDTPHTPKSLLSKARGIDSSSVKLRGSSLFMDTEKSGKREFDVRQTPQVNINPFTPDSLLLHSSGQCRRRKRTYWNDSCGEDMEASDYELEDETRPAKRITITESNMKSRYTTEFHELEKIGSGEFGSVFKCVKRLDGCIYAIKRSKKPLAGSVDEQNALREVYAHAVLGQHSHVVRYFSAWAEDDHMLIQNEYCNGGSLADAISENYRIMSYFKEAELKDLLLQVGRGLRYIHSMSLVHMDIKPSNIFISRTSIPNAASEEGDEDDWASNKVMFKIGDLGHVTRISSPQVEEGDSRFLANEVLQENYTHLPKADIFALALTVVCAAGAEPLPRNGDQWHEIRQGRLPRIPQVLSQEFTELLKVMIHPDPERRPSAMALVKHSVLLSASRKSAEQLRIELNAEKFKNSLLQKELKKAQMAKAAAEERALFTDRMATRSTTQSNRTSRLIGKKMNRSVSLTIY

[7] = test system: EML4-ALK (Homo sapiens), Q9UM73+Q9HC35 [L1152R]; details: BaF3, dose 500.0 nmol/L, time 3-5 weeks
[8] = molecular target: Homeodomain-interacting protein kinase 2 (Homo sapiens) (UniProt Q9H2X6); test: Inhibition of human HIPK2 at 1 uM using MBP as substrate in presence of [gamma33P]-ATP by HotSpot assay relative to control
Homo sapiens = organism: Homo sapiens; test: Inhibition of human BRAF V600E at 1 uM using MEK1 as substrate in presence of [gamma33P]-ATP by HotSpot assay relative to control
[9] = molecular target: MAP kinase-activated protein kinase 2 (Homo sapiens) (UniProt P49137); test: Inhibition of human MAPKAPK2 at 1 uM using KKLNRTLSVA as substrate in presence of [gamma33P]-ATP by HotSpot assay relative to control
Sequence of MAP kinase-activated protein kinase 2 (Homo sapiens) (P49137 whole entry, looked up): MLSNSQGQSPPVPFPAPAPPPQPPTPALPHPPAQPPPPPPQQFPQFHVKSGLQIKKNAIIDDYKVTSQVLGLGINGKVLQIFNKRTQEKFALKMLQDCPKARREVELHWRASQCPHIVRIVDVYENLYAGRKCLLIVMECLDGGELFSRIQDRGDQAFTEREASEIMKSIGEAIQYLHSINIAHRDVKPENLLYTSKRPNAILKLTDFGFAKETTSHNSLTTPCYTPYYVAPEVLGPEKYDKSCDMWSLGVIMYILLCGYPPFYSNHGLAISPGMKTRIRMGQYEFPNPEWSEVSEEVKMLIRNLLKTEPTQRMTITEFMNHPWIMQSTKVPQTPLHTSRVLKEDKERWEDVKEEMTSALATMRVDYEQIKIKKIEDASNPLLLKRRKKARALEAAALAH

[10] = molecular target: Platelet-derived growth factor receptor alpha (Homo sapiens) (UniProt P16234); test: Inhibition of human PDGFRalpha at 1 uM using poly (Glu, Tyr)4:1 as substrate in presence of [gamma33P]-ATP by HotSpot assay relative to control
[11] = molecular target: Mitogen-activated protein kinase kinase kinase 8 (Homo sapiens) (UniProt P41279); test: Inhibition of human MAP3K8 at 1 uM using MEK1 as substrate in presence of [gamma33P]-ATP by HotSpot assay relative to control
Sequence of Mitogen-activated protein kinase kinase kinase 8 (Homo sapiens) (P41279 whole entry): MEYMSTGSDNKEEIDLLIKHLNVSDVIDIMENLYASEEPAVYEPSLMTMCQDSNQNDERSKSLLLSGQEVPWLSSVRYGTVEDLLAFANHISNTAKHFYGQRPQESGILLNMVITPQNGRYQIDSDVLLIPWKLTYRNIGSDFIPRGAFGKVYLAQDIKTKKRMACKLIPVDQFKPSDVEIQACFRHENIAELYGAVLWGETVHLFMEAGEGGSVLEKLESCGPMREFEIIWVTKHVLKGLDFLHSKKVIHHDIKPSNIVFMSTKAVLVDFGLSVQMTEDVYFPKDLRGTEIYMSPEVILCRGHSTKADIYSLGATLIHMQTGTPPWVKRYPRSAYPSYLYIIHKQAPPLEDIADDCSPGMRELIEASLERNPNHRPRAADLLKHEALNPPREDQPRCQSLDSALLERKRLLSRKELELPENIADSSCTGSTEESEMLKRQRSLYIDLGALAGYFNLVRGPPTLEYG

[12] = molecular target: Dual specificity tyrosine-phosphorylation-regulated kinase 3 (Homo sapiens) (UniProt O43781); test: Inhibition of human DYRK3 at 1 uM using RRRFRPASPLRGPPK as substrate in presence of [gamma33P]-ATP by HotSpot assay relative to control
[13] = test system: EML4-ALK (Homo sapiens), Q9UM73+Q9HC35 [L1152P]; details: BaF3, dose 500.0 nmol/L, time 3-5 weeks
[14] = molecular target: Tyrosine-protein kinase CSK (Homo sapiens, UniProt P41240); test: Inhibition of human CSK at 1 uM using poly (Glu, Tyr)4:1 as substrate in presence of [gamma33P]-ATP by HotSpot assay relative to control
Sequence of Tyrosine-protein kinase CSK (P41240 2-450 limits assumed): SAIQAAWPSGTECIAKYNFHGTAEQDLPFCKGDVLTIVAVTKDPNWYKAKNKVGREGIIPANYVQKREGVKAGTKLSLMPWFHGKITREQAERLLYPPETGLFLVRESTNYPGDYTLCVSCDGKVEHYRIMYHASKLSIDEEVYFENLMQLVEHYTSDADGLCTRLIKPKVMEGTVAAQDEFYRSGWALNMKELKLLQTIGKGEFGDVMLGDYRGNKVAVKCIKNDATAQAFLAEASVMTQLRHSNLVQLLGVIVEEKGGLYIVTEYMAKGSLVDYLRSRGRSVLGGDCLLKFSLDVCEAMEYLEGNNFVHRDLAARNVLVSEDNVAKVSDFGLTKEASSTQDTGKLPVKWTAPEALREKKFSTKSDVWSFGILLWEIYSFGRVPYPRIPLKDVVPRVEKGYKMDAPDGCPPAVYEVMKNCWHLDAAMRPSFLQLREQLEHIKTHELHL

[15] = molecular target: Ribosomal protein S6 kinase alpha-3 (Homo sapiens, UniProt P51812); test: Inhibition of human RPS6kA3 using KKLNRTLSVA as substrate in presence of [gamma33P]-ATP by HotSpot assay
BaF3 = details: dose 50 mg/kg; route po; time 8 day
[16] = molecular target: SRSF protein kinase 1 (Homo sapiens) (UniProt Q96SB4); test: Inhibition of human SRPK1 at 1 uM using GRSRSRSRSR as substrate in presence of [gamma33P]-ATP by HotSpot assay relative to control
NCI-H2228 = test: Antitumor activity against ALK positive human NCI-H2228 cells xenografted in CB-17/SCID orthotopic brain tumor mouse model assessed as median survival time at 25 mg/kg po administered daily and measured after 64 days (reference value: 28 days); assay type: functional; details: time 64 day
[17] = test system: EML4-ALK (Homo sapiens), Q9UM73+Q9HC35 [F1174C]; details: BaF3, dose 500.0 nmol/L, time 3-5 weeks
KARPAS-299 = test: Inhibition of ERK phosphorylation in ALK-positive human KARPAS-299 cells at 1 to 1000 nM incubated for 1 hrs by immunoblot analysis; assay type: cell-based; details: dose 1-1000 nM
[18] = molecular target: Rhodopsin kinase GRK7 (Homo sapiens) (UniProt Q8WTQ7); test: Inhibition of human GRK7 at 1 uM using casein as substrate in presence of [gamma33P]-ATP by HotSpot assay relative to control
NCI-H3122 = test: Inhibition of ERK phosphorylation in ALK-positive human NCI-H3122 cells at 1 to 1000 nM incubated for 1 hrs by immunoblot analysis; assay type: cell-based; details: dose 1-1000 nM
[19] = molecular target: Tyrosine-protein kinase ZAP-70 (Homo sapiens) (UniProt P43403); test: Inhibition of human ZAP70 at 1 uM using MBP as substrate in presence of [gamma33P]-ATP by HotSpot assay relative to control
Sequence of Tyrosine-protein kinase ZAP-70 (Homo sapiens) (P43403 whole entry): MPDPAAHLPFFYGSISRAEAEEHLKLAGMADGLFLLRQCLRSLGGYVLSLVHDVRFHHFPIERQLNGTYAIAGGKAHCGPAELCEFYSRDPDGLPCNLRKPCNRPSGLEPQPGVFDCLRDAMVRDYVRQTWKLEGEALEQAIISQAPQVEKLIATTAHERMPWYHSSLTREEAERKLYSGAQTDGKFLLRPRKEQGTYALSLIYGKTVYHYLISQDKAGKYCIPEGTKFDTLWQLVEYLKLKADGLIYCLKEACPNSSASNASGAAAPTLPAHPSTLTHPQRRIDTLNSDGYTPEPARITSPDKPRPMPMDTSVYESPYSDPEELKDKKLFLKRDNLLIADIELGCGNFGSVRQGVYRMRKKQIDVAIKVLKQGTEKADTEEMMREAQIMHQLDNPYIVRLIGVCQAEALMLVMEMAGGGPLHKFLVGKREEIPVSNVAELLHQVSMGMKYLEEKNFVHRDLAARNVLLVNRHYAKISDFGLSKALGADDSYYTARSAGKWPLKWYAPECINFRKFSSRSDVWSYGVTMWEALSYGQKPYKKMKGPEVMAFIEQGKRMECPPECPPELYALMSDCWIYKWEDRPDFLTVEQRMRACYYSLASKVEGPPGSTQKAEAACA

[20] = test system: EML4-ALK (Homo sapiens), Q9UM73+Q9HC35 [UNDEFINED MUTATION]; details: BaF3, dose 500.0 nmol/L, time 3-5 weeks
Ephrin type-A receptor 7 = Ephrin type-A receptor 7 (Homo sapiens, UniProt Q15375); test: Inhibition of human EPHA7 using poly (Glu, Tyr)4:1 as substrate in presence of [gamma33P]-ATP by HotSpot assay
[21] = molecular target: Tyrosine-protein kinase JAK2 (Homo sapiens, UniProt O60674); test: Inhibition of human JAK2 using poly (Glu, Tyr)4:1 as substrate in presence of [gamma33P]-ATP by HotSpot assay
[22] = test system: EML4-ALK (Homo sapiens), Q9UM73+Q9HC35 [L1196M]; details: BaF3, dose 500.0 nmol/L, time 3-5 weeks
[23] = test system: EML4-ALK (Homo sapiens), Q9UM73+Q9HC35 [G1269A]; details: BaF3, dose 500.0 nmol/L, time 3-5 weeks

In the case of COc1cc(N2CCC(N3CCN(C)CC3)CC2)ccc1Nc1ncc(Cl)c(Nc2ccccc2P(C)(C)=O)n1 [BRIGATINIB], the Cave [1] is reported as 1447 nM, the IC50 [2] is reported as 198 nM and the inhibition [3] is reported as < 90%. For the same molecule, the IC50 (Insulin receptor) was 9330 nM, the inhibition [4] was < 90% and the IC50 (in vitro) was 3210 nM. For the same molecule, the IC90 (in vitro) was 9500 nM, the inhibition [5] was < 90% and the IC50 (Focal adhesion kinase 1) was 3.9 nM. For the same molecule, the inhibition [6] was < 90%, the inhibition [7] was “Active” and the inhibition [8] was < 90%. For the same molecule, the inhibition (Homo sapiens) was < 90%, the inhibition [9] was < 90% and the inhibition [10] was < 90%. For the same molecule, the inhibition [11] was < 90%, the inhibition [12] was < 90% and the inhibition [13] was “Active”. The inhibition [14] was < 90%, the IC50 [15] was 26 nM and the TGI (BaF3) was 88%. The inhibition [16] was < 90%, the MSD (NCI-H2228) was 62 days and the inhibition [17] was “Active”. For the same molecule, the inhibition (KARPAS-299) was “Active”, the inhibition [18] was < 90% and the inhibition (NCI-H3122) was “Active”. For the same molecule, the inhibition [19] was < 90%, the inhibition [20] was “Active” and the IC50 (Ephrin type-A receptor 7) was > 1000 nM. The IC50 [21] was 154 nM, the inhibition [22] was “Active” and the inhibition [23] was “Active”.
